Data on 12 compounds can be found in PubChem BioAssay (NCI).

“And” between values parts separate entries of the source, which are not always exact repeats. Identical values can stand only once.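 Each compound was tested at five concentrations against cells in 96-well plates for 48 hours. The concentration for 50% growth inhibition is given as GI50. The concentration for full growth arrest is given as TGI.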 A value given as a limit tells only on which side of the number the result lay.

Some test systems named below: A498 renal; UACC-62 melanoma; SW-620 colon; K-562 leukemia; OVCAR-8 ovarian; NCI-H522 lung; HCT-116 colon; PC-3 prostate; BT-549 breast; HS 578T breast.
Assay in all cases: NCI-60 cell line screen, 48 h

Take `O=C([O-])c1ccccc1Nc1ccccc1C(=O)[O-].[OH3+].[Zn+2]`: the TGI in the assay on A498 renal was 44.7 µM; with UACC-62 melanoma it was 39.9 µM; with SW-620 colon it was greater than 54.8 µM; in the assay on K-562 leukemia, 88.7 µM; with OVCAR-8 ovarian, greater than 66.4 µM; in the assay with NCI-H522 lung, 18.2 µM. Besides, in the assay with HCT-116 colon, the TGI is greater than 78.2 µM.

As to `COc1cc(/C=C2\C(=O)Nc3ccc(Cl)cc32)cc(OC)c1OC`, the GI50 was 2930 nM with PC-3 prostate; 23.2 µM in the assay on A498 renal; 16.3 µM with UACC-62 melanoma; 22.3 µM in the assay with BT-549 breast; 29.9 µM in the assay with SW-620 colon; 4440 nM in the assay with K-562 leukemia. The GI50 with HS 578T breast was 16.5 µM; in the assay with OVCAR-8 ovarian it was 22.9 µM; in the assay on NCI-H522 lung, 13.7 µM. Also, the TGI in the assay on PC-3 prostate is greater than 100 µM; with A498 renal, 72.4 µM; in the assay with UACC-62 melanoma it was greater than 100 µM; in the assay on BT-549 breast it was 92.3 µM; in the assay on SW-620 colon, greater than 100 µM; in the assay with K-562 leukemia it was greater than 100 µM. For the same compound, the TGI with HS 578T breast, with OVCAR-8 ovarian and in the assay with NCI-H522 lung was greater than 100 µM throughout.

For `O=C1NCN(c2ccccc2)C12CCN(CCCN1CCN(CCOC(c3ccccc3)c3ccccc3)CC1)CC2`, the TGI is 7.69 µM in the assay on PC-3 prostate; 6.55 µM with A498 renal; 7.69 µM in the assay on UACC-62 melanoma; 7.37 µM in the assay with BT-549 breast; 5.95 µM in the assay on SW-620 colon; 1.09 µM in the assay on K-562 leukemia. The TGI was found to be 7.97 µM in the assay with HS 578T breast, 6.51 µM with OVCAR-8 ovarian, 4.66 µM in the assay on NCI-H522 lung and 5.67 µM in the assay on HCT-116 colon.

With `CCCCC1Nc2ccccc2-c2ccnc(Cl)c21` (stereo unspecified), the TGI was greater than 100 µM in the assay on PC-3 prostate; 46.4 µM in the assay with A498 renal; 32.2 µM with UACC-62 melanoma; 42.6 µM in the assay with BT-549 breast; greater than 100 µM in the assay with SW-620 colon; 62.8 µM in the assay with K-562 leukemia. Also, the values for the TGI with HS 578T breast, in the assay with NCI-H522 lung and with HCT-116 colon were 32.3 µM, 29.6 µM and 32.3 µM, respectively.

As to `Cc1cc(C)n(CN(CCCCO)Cn2nc(C)cc2C)n1`, the TGI with PC-3 prostate is 57.7 µM; with A498 renal, greater than 100 µM; in the assay with UACC-62 melanoma, 36.9 µM; in the assay on BT-549 breast, 71.2 µM; in the assay on SW-620 colon, 63 µM; in the assay on K-562 leukemia, 52.7 µM. Moreover, the TGI in the assay on HS 578T breast was greater than 100 µM; in the assay with OVCAR-8 ovarian, 41.7 µM; in the assay with NCI-H522 lung, 48.1 µM; in the assay with HCT-116 colon, 36.4 µM.

For `N=C1c2ccccc2C(=O)c2c(NCCNCCO)ccc(O)c21`, the TGI with A498 renal was 33.8 µM; in the assay with UACC-62 melanoma, 18.9 µM; with SW-620 colon, 15.8 µM; in the assay with K-562 leukemia, greater than 28.8 µM; in the assay on OVCAR-8 ovarian, greater than 76.2 µM; in the assay on NCI-H522 lung, 13.3 µM. Moreover, the TGI in the assay with HCT-116 colon is 15 µM.

Turning to `COC1=CC(c2ccc[nH]2)=N/C1=C\c1[nH]c(C)c(CC(=O)NCc2ccccc2)c1C`, the figures for the GI50 in the assay on PC-3 prostate, in the assay on A498 renal and with BT-549 breast were 1100 nM, 1.28 µM and 1.41 µM, respectively. For the same compound, the figures for the TGI with PC-3 prostate, in the assay with A498 renal and in the assay on BT-549 breast were 2.6 µM, 2.71 µM and 3.06 µM, respectively.

Consider `COc1cc2c(c(OC)c1OC)-c1ccc(OC)c(=O)cc1C(NC(=O)CCCCCNc1ccc(N=[N+]=[N-])cc1[N+](=O)[O-])CC2` (stereo unspecified), for which the TGI was less than 0.01 µM in the assay on PC-3 prostate; less than 0.01 µM with UACC-62 melanoma; greater than 31.6 µM in the assay with SW-620 colon; 4.67 µM in the assay on HS 578T breast; greater than 100 µM in the assay with OVCAR-8 ovarian; less than 0.0105 µM with HCT-116 colon.

Regarding `O=S(=O)(O)c1ccc(N=Nc2ccc(N=Nc3c(O)ccc4ccc(S(=O)(=O)O)cc34)cc2)cc1`, the TGI in the assay with PC-3 prostate, in the assay on UACC-62 melanoma, in the assay on BT-549 breast, in the assay on SW-620 colon, in the assay with K-562 leukemia and in the assay with HS 578T breast was greater than 100 µM throughout. The TGI in the assay with OVCAR-8 ovarian, with NCI-H522 lung and with HCT-116 colon was greater than 100 µM throughout.

As to `CC(C)(C)c1ccc(NS(=O)(=O)c2ccc(N)cc2)cc1`, the TGI in the assay on PC-3 prostate came out at 85.7 µM; with A498 renal it was 46.4 µM; in the assay with UACC-62 melanoma, 30.3 µM; in the assay on BT-549 breast, 54.8 µM; with SW-620 colon it was 69 µM; with K-562 leukemia it was 41.7 µM. Moreover, the TGI came out at 59.3 µM with HS 578T breast, 68.5 µM in the assay on OVCAR-8 ovarian, 38.7 µM with NCI-H522 lung and 34.7 µM with HCT-116 colon.

For `COc1ccccc1N1C(=O)CSC1c1cccc(Oc2ccccc2)c1` (stereo unspecified), the TGI is 40 µM with PC-3 prostate; 36.6 µM with A498 renal; 30.1 µM in the assay with UACC-62 melanoma; 31.9 µM in the assay with BT-549 breast; 56.6 µM in the assay with SW-620 colon; 70.2 µM in the assay on K-562 leukemia. The TGI with HS 578T breast was 44.5 µM; with OVCAR-8 ovarian it was 37.5 µM; in the assay with NCI-H522 lung, 34.7 µM; in the assay on HCT-116 colon it was 31.5 µM.

With `COc1ccc2c(c1)C(=O)c1c-2n(CCCN=[N+]=[N-])c(=O)c2cc([N+](=O)[O-])ccc12`, the TGI was greater than 100 µM in the assay on PC-3 prostate; 0.991 µM in the assay with UACC-62 melanoma; 1.3 µM in the assay with BT-549 breast; 0.783 µM with SW-620 colon; 16.3 µM in the assay with K-562 leukemia; greater than 100 µM in the assay on HS 578T breast. Further, the TGI was greater than 100 µM in the assay with OVCAR-8 ovarian, 0.657 µM in the assay on NCI-H522 lung and 9.11 µM in the assay with HCT-116 colon. The GI50 in the assay with UACC-62 melanoma is 0.225 µM; with SW-620 colon it was less than 0.001 µM; in the assay with K-562 leukemia, 78.2 nM and 65.3 nM; in the assay with HS 578T breast, 16.2 µM; with NCI-H522 lung, less than 0.001 µM.
